According to paper PMC7391726, “Fatty acid mimetic PBI-4547 restores metabolic homeostasis via GPR84 in mice with non-alcoholic fatty liver disease” (Scientific Reports, 2020):

Legend:
[1] = tested on: BDL rat; assay: Bile duct ligation (BDL)-induced liver fibrosis; assay type: in vivo
Description: Since fibrosis contributes directly to the progression from NAFLD to NASH, we next evaluated the effect of PBI-4547 pro-fibrotic gene expression. […] Pro-inflammatory genes were not modulated by treatment with PBI-4547. […] As liver fibrosis was relatively mild in HFD-fed mice, we performed separate studies to evaluate the antifibrotic effect of PBI-4547, in rodent models of carbon tetrachloride (CCl4)- and bile duct ligation (BDL)-induced liver fibrosis.

[2] = tested on: HFD-fed WT mice; assay: High-fat diet (HFD) mouse model of obesity/NAFLD, WT mice; assay type: in vivo
Description: The well-established high-fat diet (HFD) mouse model of obesity was used to study the impact of PBI-4547 on the onset and progression of NAFLD. A 14-week HFD regimen led to significant weight gain in both male and female mice. […] Moreover, PBI-4547 decreased serum triglycerides while enhancing adiponectin levels. […] Of note, the effects of PBI-4547 on bodyweight, food consumption, glucose tolerance, fasting blood glucose, insulin resistance and HOMA-β indices were absent in standard diet-fed mice (Table S1).
Total cholesterol levels were measured using the HDL/LDL/VLDL Cholesterol Assay kit (Abcam) according to manufacturer’s protocol. […] Liver triglycerides were extracted using a modified version of the Folch protocol[49]^, then quantified using a triglyceride colorimetric kit (Cayman Chemical).
WT or Gpr84^−/− mice, as previously described, (aged 10–14 weeks at the beginning of the experiment) were either fed a standard diet (STD) or a high-fat diet (HFD) (Envigo #TD.06414) for 14 weeks. At this point, mice were administered either vehicle (water) or PBI-4547 (10 mg/kg) on a daily basis for 6 (WT study) or 8 (WT vs KO study) weeks by gastric gavage, and were sacrificed thereafter. Liver and WAT tissues were fixed in 10% formalin for histological analyses or flash frozen in liquid nitrogen for RT-PCR analyses. All animal studies were reviewed and approved by the animal care and use committee of the Institut National de la Recherche Scientifique – Armand-Frappier (Laval, QC, Canada) and the University of Ottawa’s Animal Care and Veterinary Services (Ottawa, ON, Canada). Protocols were approved and undertaken according to the Canadian Council on Animal Care guidelines.
Oral glucose tolerance tests (OGTT) were completed 6 weeks after beginning of the treatments. Briefly, mice were fasted for 4–6 h, given a bolus of glucose at […] BW orally, and blood glucose values measured at 0, 15, 30, 60, 120 min. In parallel, a blood sample was obtained at 0, 15, 60 and 120 min for insulin quantification by ELISA (EMD Millipore).
After fixation in formalin, iWAT (inguinal), eWAT (epididymal) and liver sections were embedded in paraffin. Thin section of […] were stained with Hematoxylin and Eosin or Sirius red for analyses. WAT collagen deposition and liver characteristics of NAFLD were quantified histologically by a pathologist (R.C.) in a double-blinded manner. Liver histology was performed on H&E stained slides. WAT collagen deposition was scored using Picro Sirius-Red stained slides. Immunofluorescence-detection of α-SMA in liver sections was performed. Briefly, samples were deparaffinized in a series of xylenes, rehydrated in graded alcohols followed by an antigen-unmasking step by microwaving in Tris-buffer (pH 8.2). Sections were blocked with 10% donkey serum (Vector labs), 1% bovine serum albumin (Sigma) in PBS + 1%Tween for 1 h at room temperature. Slides were incubated overnight at 4 °C with an anti-mouse smooth muscle α-Actin antibody (1:300; Santa Cruz, clone #1A4). Secondary detection was performed using a donkey anti-mouse Alexa Fluor 594 (1:500; Molecular Probes), incubated for 1 h at room temperature. Slides were dehydrated and mounted with fluorescent antifade media containing DAPI (Vector labs). Images were taken at 100X and 200X magnification and representative images are shown.
RNA was extracted and purified as previously described. Real-time quantitative PCR was performed on a CFX96 Touch Real-Time PCR Detection System (Bio-Rad) using TaqMan gene expression assays (Fisher Scientific). qPCR data were analyzed using the 2-^ΔΔCt method, using Gapdh and Hprt as endogenous control. RT-qPCR data were reported as Geometric means ± SEM.
A portion of hepatic tissue (50 mg) was mechanically homogenized in 1 mL H2O/CH3CN (1/1) using a PowerGen 125 homogenizer (Fisher Scientific). The homogenates were centrifuged for 10 min at 5,000×g at 4 °C. Hydrophilic metabolites were lyophilized to remove water for NMR experiments. […]

[3] = HFD mice, 1H-NMR liver metabolomics

organ weight ([2]; HFD mice, 10 mg/kg daily by gavage): without affecting
Structure (SMILES): CCCCCc1cc(CCCCC)cc(CC(=O)[O-])c1.[Na+] [PBI-4547, 2-[3,5-dipentylphenyl]acetate sodium salt]
liver collagen deposition [1]: significantly decreased | HOMA-IR index ([2]; HFD mice, 10 mg/kg daily): decreased by PBI-4547 to the STD group level | degree of hepatic inflammation (histology) ([2]; HFD mice, 10 mg/kg daily): remained unchanged | disposition index ([2]; HFD mice, 10 mg/kg daily): remained unchanged | fasting insulin levels ([2]; HFD mice, 10 mg/kg daily): lowered | hepatic ballooning (histology) ([2]; HFD mice, 10 mg/kg daily): markedly reduced | hepatic steatosis (histology) ([2]; HFD mice, 10 mg/kg daily): markedly reduced | liver total cholesterol ([2]; HFD mice, 10 mg/kg daily): without affecting | liver triglyceride levels ([2]; HFD mice, 10 mg/kg daily): reduced | oral glucose tolerance test (OGTT) ([2]; HFD mice, 10 mg/kg daily): better glycemic control | overall NAFLD score ([2]; HFD mice, 10 mg/kg daily): significantly improving | serum adiponectin levels ([2]; HFD mice, 10 mg/kg daily): enhancing | serum triglycerides ([2]; HFD mice, 10 mg/kg daily): decreased | bodyweight ([2]; HFD mice, 10 mg/kg daily by gavage, 5 weeks after beginning of treatment): significant reduction | fasting blood glucose ([2]; HFD mice, 10 mg/kg daily, after 6 weeks of treatment): decreased | hepatic dysregulation of key amino acids and citric acid cycle intermediates (metabolomics) [2, 3]: corrected | hepatic energy metabolism intermediates (metabolomics) [2, 3]: restored back to normal levels | maximum diameter or average size of adipocytes ([2]; HFD mice, WAT morphometric analysis): did not affect | WAT expression of Pgc1a and Ucp1 ([2]; HFD mice, WAT qRT-PCR): induced | WAT expression of resistin and glucose transporters Slc2a2, Slc2a4 ([2]; HFD mice, WAT qRT-PCR): increased | WAT expression of vaspin (Serpina12) ([2]; HFD mice, WAT qRT-PCR): completely abolished | WAT mRNA of pro-fibrotic (Cola1, Ctgf, Mmp2, Timp1) and pro-inflammatory (Il6, Ccl2) genes ([2]; HFD mice, WAT qRT-PCR): downregulated | NAD+ in liver ([2]; HFD mice, liver metabolomics): restored high levels | hepatic Ucp2 and Ucp3 expression ([2]; HFD mice, qRT-PCR): highly upregulated | hepatic expression of FA metabolism genes Acox1, Cpt1b, Pdk4, Hadha, Cd36 ([2]; HFD mice, qRT-PCR): strong upregulation | hepatic expression of glucose metabolism genes Pklr, G6pc, Slc2a2 ([2]; HFD mice, qRT-PCR): normalized | liver Adipor2 expression ([2]; HFD mice, qRT-PCR): downregulated | liver Ctgf mRNA levels ([2]; HFD mice, qRT-PCR): significantly decreased | liver Mmp2 mRNA levels ([2]; HFD mice, qRT-PCR): significantly decreased | liver Retn (resistin) expression ([2]; HFD mice, qRT-PCR): restored to normal levels | liver Serpina12 (vaspin) expression ([2]; HFD mice, qRT-PCR): downregulated | liver pro-inflammatory genes ([2]; HFD mice, qRT-PCR): not modulated | WAT extent of interstitial fibrosis ([2]; HFD mice, white adipose tissue): decreased | WAT immune cell infiltration ([2]; HFD mice, white adipose tissue): decreased | serum total cholesterol ([2]; HFD mice, after four weeks of treatment): returned to similar level as in the HFD group | serum total cholesterol ([2]; HFD mice, after two weeks of treatment): slightly increased | HOMA-IR index ([2]; WT vs KO study, HFD-fed WT): reduced | WAT mean adipocyte diameters and area ([2]; WT vs KO study, HFD-fed WT): remained unchanged | fasting blood glucose levels ([2]; WT vs KO study, HFD-fed WT): downregulated | insulin levels ([2]; WT vs KO study, HFD-fed WT): reduced | liver glycogen levels ([2]; WT vs KO study, HFD-fed WT): increased | serum adiponectin ([2]; WT vs KO study, HFD-fed WT): upregulated | serum cholesterol levels ([2]; WT vs KO study, HFD-fed WT): remained unchanged | serum triglyceride levels ([2]; WT vs KO study, HFD-fed WT): lowered | α-SMA positive liver staining (immunofluorescence) ([2]; WT vs KO study, HFD-fed WT): dramatic drop | bodyweight ([2]; WT vs KO study, HFD-fed WT, 10 mg/kg daily, 8 weeks): decreased | OGTT ([2]; WT vs KO study, HFD-fed WT, after 6 weeks): significant effect | AMPK phosphorylation levels in the liver ([2]; data not shown): promote
